Consider 18 compounds from patent US10479780B2, “Aminopyrazole derivatives” (Chugai Seiyaku Kabushiki Kaisha, priority 2015, dated 2019).

Type in all cases: biochemical
For one test, the target named is T1, human Lck enzyme (Homo sapiens, UniProt P06239).
T1 construct: purchased Carna Biosciences, Inc. 08-170
The test is described as follows: Lck enzyme inhibitory activity (time-resolved fluorometry, biotinylated peptide phosphorylation). To be noted: read-out: LCK_IC50. Summed up: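 Readout pairs a europium cryptate-labelled anti-phosphotyrosine antibody with XL665-streptavidin, measured by time-resolved fluorescence. IC50 derived from percent inhibition against untreated controls.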

In the next test the target is T2, human Yes1 enzyme (Homo sapiens, UniProt P07947).
T2 construct: made in house
T2 sequence (P07947 whole entry): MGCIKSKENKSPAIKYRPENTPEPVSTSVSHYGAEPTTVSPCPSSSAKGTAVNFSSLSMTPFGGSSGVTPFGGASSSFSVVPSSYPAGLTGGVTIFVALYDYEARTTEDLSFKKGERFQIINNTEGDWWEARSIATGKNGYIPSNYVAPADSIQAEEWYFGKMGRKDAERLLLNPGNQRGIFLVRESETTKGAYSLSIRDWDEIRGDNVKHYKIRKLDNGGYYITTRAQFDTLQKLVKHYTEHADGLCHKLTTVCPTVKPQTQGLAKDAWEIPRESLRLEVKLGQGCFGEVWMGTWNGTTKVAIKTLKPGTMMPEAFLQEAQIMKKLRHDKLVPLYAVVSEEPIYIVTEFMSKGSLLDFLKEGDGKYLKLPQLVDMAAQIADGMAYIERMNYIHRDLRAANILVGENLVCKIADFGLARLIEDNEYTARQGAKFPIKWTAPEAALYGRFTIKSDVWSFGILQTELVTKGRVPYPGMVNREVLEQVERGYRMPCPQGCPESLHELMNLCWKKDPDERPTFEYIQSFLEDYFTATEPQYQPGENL
The test is described as follows: Yes1 enzyme inhibitory activity (time-resolved fluorometry, biotinylated peptide phosphorylation). To be noted: read-out: YES_IC50. Summed up:
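Inhibition was expressed against a compound-free control to give IC50, using TR-FRET read-out (Eu-cryptate anti-pTyr antibody, streptavidin-XL665).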

For the next test, the target named is T3, human Src enzyme (Homo sapiens, UniProt P12931).
T3 construct: purchased Carna Biosciences, Inc. 08-173
T3 sequence (P12931 whole entry): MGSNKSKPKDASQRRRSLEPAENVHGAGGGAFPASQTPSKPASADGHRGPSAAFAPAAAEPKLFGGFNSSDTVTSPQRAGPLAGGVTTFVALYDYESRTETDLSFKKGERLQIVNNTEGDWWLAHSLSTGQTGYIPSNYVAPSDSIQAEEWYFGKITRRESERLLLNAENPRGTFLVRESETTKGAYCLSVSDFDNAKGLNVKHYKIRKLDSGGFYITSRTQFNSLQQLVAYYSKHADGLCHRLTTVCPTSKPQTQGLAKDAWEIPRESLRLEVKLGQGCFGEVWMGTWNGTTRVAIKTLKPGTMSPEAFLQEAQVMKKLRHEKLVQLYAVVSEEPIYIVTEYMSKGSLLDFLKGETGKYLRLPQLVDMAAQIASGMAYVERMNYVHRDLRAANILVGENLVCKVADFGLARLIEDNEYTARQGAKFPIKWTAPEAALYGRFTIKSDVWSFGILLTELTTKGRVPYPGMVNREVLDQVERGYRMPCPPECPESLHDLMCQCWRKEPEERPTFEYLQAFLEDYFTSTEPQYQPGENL
As to the kind of experiment: Src enzyme inhibitory activity (time-resolved fluorometry, biotinylated peptide phosphorylation). As to conditions: read-out: SRC_IC50. Summed up: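 Compounds were tested for blocking tyrosine phosphorylation of a biotinylated peptide substrate by recombinant human Src. Phosphorylated product was quantified by time-resolved fluorometry using europium cryptate and XL665 conjugates, and IC50 was calculated against the compound-free control.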

T1 sequence (P06239 whole entry): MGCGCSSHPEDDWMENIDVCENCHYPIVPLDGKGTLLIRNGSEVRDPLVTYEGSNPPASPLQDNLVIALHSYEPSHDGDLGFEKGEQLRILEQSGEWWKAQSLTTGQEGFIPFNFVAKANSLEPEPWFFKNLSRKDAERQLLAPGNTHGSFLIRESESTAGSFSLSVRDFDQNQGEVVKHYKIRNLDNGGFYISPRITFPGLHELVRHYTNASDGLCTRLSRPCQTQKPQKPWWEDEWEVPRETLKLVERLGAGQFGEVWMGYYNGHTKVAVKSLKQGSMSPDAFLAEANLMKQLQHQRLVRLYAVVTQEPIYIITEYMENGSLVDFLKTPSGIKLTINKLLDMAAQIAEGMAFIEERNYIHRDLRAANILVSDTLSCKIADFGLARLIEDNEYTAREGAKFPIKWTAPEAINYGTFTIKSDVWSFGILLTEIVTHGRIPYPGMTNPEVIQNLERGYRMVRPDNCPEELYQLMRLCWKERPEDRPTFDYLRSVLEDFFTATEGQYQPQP

`Cc1cc(Oc2ccccc2F)ccc1-n1ncc(C(=O)c2cc3cc(F)c(N4C(=O)[C@@H]5C[C@H](NC(=O)OCC6c7ccccc7-c7ccccc76)CN5C4=O)cc3[nH]2)c1N` [Example 5-1-265, 9H-fluoren-9-ylmethyl N-[(6S,7aS)-2-[2-[5-amino-1-[4-(2-fluorophenoxy)-2-methylphenyl]pyrazole-4-carbonyl]-5-fluoro-1H-indol-6-yl]-1,3-dioxo-5,6,7,7a-tetrahydropyrrolo[1,2-c]imidazol-6-yl]carbamate]: the IC50 on human Lck enzyme amounted to 38 nM; at human Yes1 enzyme, 5.4 nM; at human Src enzyme it was 440 nM.
As to `Cc1cc(Oc2ccccc2F)ccc1-n1ncc(C(=O)c2cc3cc(C(C)C)c(N)cc3[nH]2)c1N` [Example 5-1-266, [5-amino-1-[4-(2-fluorophenoxy)-2-methylphenyl]pyrazol-4-yl]-(6-amino-5-propan-2-yl-1H-indol-2-yl)methanone], the IC50 on human Lck enzyme came to 11 nM; at human Yes1 enzyme, 2.1 nM; on human Src enzyme it was 11 nM.
On to `Cc1cc(Oc2ccccc2F)ccc1-n1ncc(C(=O)c2cc3cc(C(C)C)c(NS(C)(=O)=O)cc3[nH]2)c1N` [Example 5-1-267, N-[2-[5-amino-1-[4-(2-fluorophenoxy)-2-methylphenyl]pyrazole-4-carbonyl]-5-propan-2-yl-1H-indol-6-yl]methanesulfonamide], for which the IC50 at human Lck enzyme came out at 17 nM; on human Yes1 enzyme it was 2 nM; on human Src enzyme it was 21 nM.
In the same order, the values of `Cc1cc2cc(C(=O)c3cnn(-c4ccc(Oc5ccccc5F)cc4C)c3N)[nH]c2cc1N1C(=O)[C@@H]2C[C@H](NC(=O)OCC3c4ccccc4-c4ccccc43)CN2C1=O` [Example 5-1-268, 9H-fluoren-9-ylmethyl N-[(6S,7aS)-2-[2-[5-amino-1-[4-(2-fluorophenoxy)-2-methylphenyl]pyrazole-4-carbonyl]-5-methyl-1H-indol-6-yl]-1,3-dioxo-5,6,7,7a-tetrahydropyrrolo[1,2-c]imidazol-6-yl]carbamate] are 31 nM, 12 nM and 120 nM.
As to `Cc1cc2cc(C(=O)c3cnn(-c4cnc(Oc5c(F)cccc5F)cc4C)c3N)[nH]c2cc1NS(=O)(=O)C1CCOCC1` [Example 5-1-269, N-[2-[5-amino-1-[6-(2,6-difluorophenoxy)-4-methylpyridin-3-yl]pyrazole-4-carbonyl]-5-methyl-1H-indol-6-yl]oxane-4-sulfonamide], the IC50 came out at 23 nM on human Lck enzyme, 2 nM on human Yes1 enzyme and 110 nM at human Src enzyme.
Consider `Cc1cc(Oc2ccccc2F)ccc1-n1ncc(C(=O)c2cc3cc(OCC(F)F)c(N4C(=O)[C@@H]5C[C@@H](NC(=O)OCC6c7ccccc7-c7ccccc76)CN5C4=O)cc3[nH]2)c1N` [Example 5-1-270, 9H-fluoren-9-ylmethyl N-[(6R,7aS)-2-[2-[5-amino-1-[4-(2-fluorophenoxy)-2-methylphenyl]pyrazole-4-carbonyl]-5-(2,2-difluoroethoxy)-1H-indol-6-yl]-1,3-dioxo-5,6,7,7a-tetrahydropyrrolo[1,2-c]imidazol-6-yl] carbamate], for which the IC50 at human Lck enzyme was 28 nM; at human Yes1 enzyme, 4.7 nM; at human Src enzyme it was 130 nM.
For `Cc1cc(Oc2ccccc2F)ccc1-n1ncc(C(=O)c2cc3cc(OCC(F)F)c(N4C(=O)NC5(CCNCC5)C4=O)cc3[nH]2)c1N` [Example 5-1-271, 3-[2-[5-amino-1-[4-(2-fluorophenoxy)-2-methylphenyl]pyrazole-4-carbonyl]-5-(2,2-difluoroethoxy)-1H-indol-6-yl]-1,3,8-triazaspiro [4.5]decane-2,4-dione], the IC50 on human Lck enzyme came out at 3.2 nM; on human Yes1 enzyme, 0.51 nM; at human Src enzyme, 7.2 nM.
`Cc1cc(Oc2ccccc2F)ccc1-n1ncc(C(=O)c2cc3cc(OCC(F)F)c(N4C(=O)NC5(CCN(C6COC6)CC5)C4=O)cc3[nH]2)c1N` [Example 5-1-272, 3-[2-[5-amino-1-[4-(2-fluorophenoxy)-2-methylphenyl]pyrazole-4-carbonyl]-5-(2,2-difluoroethoxy)-1H-indol-6-yl]-8-(oxetan-3-yl)-1,3,8-triazaspiro[4.5]decane-2,4-dione]: the IC50 at human Lck enzyme is 4.2 nM; at human Yes1 enzyme, 0.65 nM; on human Src enzyme, 7.8 nM.
On the same counts, the results for `Cc1cc(Oc2ccccc2F)ccc1-n1ncc(C(=O)c2cc3cc(OCC(F)F)c(N4C(=O)[C@@H]5C[C@H](NC(=O)OCc6ccccc6)CN5C4=O)cc3[nH]2)c1N` [Example 5-1-273, Benzyl N-[(6S,7aS)-2-[2-[5-amino-1-[4-(2-fluorophenoxy)-2-methylphenyl]pyrazole-4-carbonyl]-5-(2,2-difluoroethoxy)-1H-indol-6-yl]-1,3-dioxo-5,6,7,7a-tetrahydropyrrolo[1,2-c]imidazol-6-yl]carbamate] are 15 nM, 1.8 nM and 33 nM.
In the same order, the values of `Cc1cc(Oc2ccccc2F)ccc1-n1ncc(C(=O)c2cc3cc(OCC(F)F)c(N4C(=O)[C@@H]5C[C@H](NC(=O)OCC(C)C)CN5C4=O)cc3[nH]2)c1N` [Example 5-1-274, 2-methylpropyl N-[(6S,7aS)-2-[2-[5-amino-1-[4-(2-fluorophenoxy)-2-methylphenyl]pyrazole-4-carbonyl]-5-(2,2-difluoroethoxy)-1H-indol-6-yl]-1,3-dioxo-5,6,7,7a-tetrahydropyrrolo[1,2-c]imidazol-6-yl]carbamate] are 17 nM, 2.1 nM and 45 nM.
As for `Cc1cc(Oc2ccccc2F)ccc1-n1ncc(C(=O)c2cc3cc(OCC(F)F)c(N4C(=O)[C@@H]5C[C@H](NS(=O)(=O)Cc6ccccc6)CN5C4=O)cc3[nH]2)c1N` [Example 5-1-275, N-[(6S,7aS)-2-[2-[5-amino-1-[4-(2-fluorophenoxy)-2-methylphenyl]pyrazole-4-carbonyl]-5-(2,2-difluoroethoxy)-1H-indol-6-yl]-1,3-dioxo-5,6,7,7a-tetrahydropyrrolo[1,2-c]imidazol-6-yl]-1-phenylmethanesulfonamide], the IC50 was 7 nM on human Lck enzyme, 0.64 nM on human Yes1 enzyme and 19 nM on human Src enzyme.
On to `Cc1cc(Oc2ccccc2F)ccc1-n1ncc(C(=O)c2cc3cc(OCC(F)F)c(N4C(=O)[C@@H]5C[C@H](NS(=O)(=O)c6ccc7ccccc7c6)CN5C4=O)cc3[nH]2)c1N` [Example 5-1-276, N-[(6S,7aS)-2-[2-[5-amino-1-[4-(2-fluorophenoxy)-2-methylphenyl]pyrazole-4-carbonyl]-5-(2,2-difluoroethoxy)-1H-indol-6-yl]-1,3-dioxo-5,6,7,7a-tetrahydropyrrolo[1,2-c]imidazol-6-yl]naphthalene-2-sulfonamide], for which the figures for the IC50 on human Lck enzyme, at human Yes1 enzyme and at human Src enzyme were 35 nM, 2.2 nM and 87 nM, respectively.
Regarding `Cc1cc(Oc2ccccc2F)ccc1-n1ncc(C(=O)c2cc3cc(OCC(F)F)c(N4C(=O)NC5(CCN(Cc6ccccc6)CC5)C4=O)cc3[nH]2)c1N` [Example 5-1-277, 3-[2-[5-amino-1-[4-(2-fluorophenoxy)-2-methylphenyl]pyrazole-4-carbonyl]-5-(2,2-difluoroethoxy)-1H-indol-6-yl]-8-benzyl-1,3,8-triazaspiro[4.5]decane-2,4-dione], the IC50 on human Lck enzyme is 12 nM; at human Yes1 enzyme, 1.5 nM; on human Src enzyme it was 39 nM.
In the same order, the values of `Cc1cc(Oc2ccccc2F)ccc1-n1ncc(C(=O)c2cc3cc(OCC(F)F)c(N4C(=O)[C@@H]5C[C@H](NC(=O)OCc6ccco6)CN5C4=O)cc3[nH]2)c1N` [Example 5-1-278, furan-2-ylmethyl ((6S,7aS)-2-(2-(5-amino-1-(4-(2-fluorophenoxy)-2-methylphenyl)-1H-pyrazole-4-carbonyl)-5-(2,2-difluoroethoxy)-1H-indol-6-yl)-1,3-dioxohexahydro-1H-pyrrolo[1,2-c]imidazol-6-yl)carbamate] are 8.7 nM, 1.2 nM and 23 nM.
On the same counts, the results for `Cc1cc(Oc2ccccc2F)ccc1-n1ncc(C(=O)c2cc3cc(OCC(F)F)c(NC(=O)OCC4c5ccccc5-c5ccccc54)cc3[nH]2)c1N` [Example 5-1-279, 9H-fluoren-9-ylmethyl N-[2-[5-amino-1-[4-(2-fluorophenoxy)-2-methylphenyl]pyrazole-4-carbonyl]-5-(2,2-difluoroethoxy)-1H-indol-6-yl] carbamate] are 170 nM, 14 nM and 910 nM.
On the same counts, the results for `Cc1cc(Oc2ccccc2F)ccc1-n1ncc(C(=O)c2cc3cc(C(C)C)c(NS(=O)(=O)CCCF)cc3[nH]2)c1N` [Example 5-1-280, N-[2-[5-amino-1-[4-(2-fluorophenoxy)-2-methylphenyl]pyrazole-4-carbonyl]-5-propan-2-yl-1H-indol-6-yl]-3-fluoropropane-1-sulfonamide] are 31 nM, 1.8 nM and 80 nM.
As to `Cc1cc2cc(C(=O)c3cnn(-c4cnc(Oc5c(F)cccc5F)cc4C)c3N)[nH]c2cc1NS(=O)(=O)C1CCOC1` (stereo not drawn) [Example 5-1-281, N-[2-[5-amino-1-[6-(2,6-difluorophenoxy)-4-methylpyridin-3-yl]pyrazole-4-carbonyl]-5-methyl-1H-indol-6-yl]oxolane-3-sulfonamide], the IC50 worked out at 27 nM on human Lck enzyme, 1.9 nM at human Yes1 enzyme and 140 nM on human Src enzyme.
On the same counts, the results for `Cc1cc(Oc2ccccc2F)ccc1-n1ncc(C(=O)c2cc3cc(C(C)C)c(NS(=O)(=O)C4CCOCC4)cc3[nH]2)c1N` [Example 5-1-282, N-[2-[5-amino-1-[4-(2-fluorophenoxy)-2-methylphenyl]pyrazole-4-carbonyl]-5-propan-2-yl-1H-indol-6-yl]oxane-4-sulfonamide] are 120 nM, 4.8 nM and 200 nM.
